Experiments:
[1] = tested on: RXF-2540; experiment: RCC PDX single animal trial, RXF-2540; assay type: in vivo, mouse; details: HC-5404 30 mg/kg PO BID, n=1
Source text: This example investigated the effect of HC-5404 in combination with VEGFR-TKIs in inhibiting tumor growth using 12 RCC PDX tumor models, following procedures analogous to those described above.
Single animal per group (n=1) trial of animals harboring diverse RCC PDX models were used in this study.

[2] = molecular target: T1, PERK (Homo sapiens, UniProt Q9NZJ5); experiment: cell-free FRET-based biochemical assay, PERK; details: role: inhibitor; ratio of IC50 values
T1 construct: purchased Carna
T1 sequence (Q9NZJ5 30-1116): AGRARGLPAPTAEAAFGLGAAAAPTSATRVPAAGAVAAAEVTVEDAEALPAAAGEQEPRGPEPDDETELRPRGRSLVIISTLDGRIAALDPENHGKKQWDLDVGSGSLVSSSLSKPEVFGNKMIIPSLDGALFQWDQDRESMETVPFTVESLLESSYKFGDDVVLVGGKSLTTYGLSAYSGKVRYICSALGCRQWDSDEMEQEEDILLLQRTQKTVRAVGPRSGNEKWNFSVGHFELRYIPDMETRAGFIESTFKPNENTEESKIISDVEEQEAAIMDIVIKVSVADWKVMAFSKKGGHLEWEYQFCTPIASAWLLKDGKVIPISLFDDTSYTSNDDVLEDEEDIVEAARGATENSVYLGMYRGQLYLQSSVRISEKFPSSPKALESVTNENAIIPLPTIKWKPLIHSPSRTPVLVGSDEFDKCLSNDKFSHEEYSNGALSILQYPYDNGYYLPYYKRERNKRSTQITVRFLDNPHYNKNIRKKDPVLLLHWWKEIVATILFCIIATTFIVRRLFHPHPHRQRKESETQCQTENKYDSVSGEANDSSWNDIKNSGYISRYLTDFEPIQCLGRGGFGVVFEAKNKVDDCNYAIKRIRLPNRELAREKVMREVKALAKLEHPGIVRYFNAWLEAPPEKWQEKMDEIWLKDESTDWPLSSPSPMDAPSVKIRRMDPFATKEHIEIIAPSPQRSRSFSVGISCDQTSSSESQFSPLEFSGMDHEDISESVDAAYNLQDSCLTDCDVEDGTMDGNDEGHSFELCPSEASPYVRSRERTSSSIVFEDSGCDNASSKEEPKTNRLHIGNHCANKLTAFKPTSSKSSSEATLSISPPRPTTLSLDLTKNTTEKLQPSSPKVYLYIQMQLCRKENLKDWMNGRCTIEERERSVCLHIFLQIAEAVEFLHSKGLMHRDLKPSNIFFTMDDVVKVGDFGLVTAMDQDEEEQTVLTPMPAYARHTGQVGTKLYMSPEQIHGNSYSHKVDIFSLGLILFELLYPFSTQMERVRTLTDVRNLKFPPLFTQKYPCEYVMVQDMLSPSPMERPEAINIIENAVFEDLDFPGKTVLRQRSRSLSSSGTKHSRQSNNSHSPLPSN
Procedure: The potency of HC-5404 against four ISR kinases was evaluated in cell-free FRET-based biochemical assays, following manufacturer's instructions (Carna).
Cell-free biochemical assays were used to evaluate the selectivity of HC-5404 for PERK, relative to the ISR kinases GCN2, HRI, and PKR. In these assays, recombinant target kinases were incubated with […] and an eIF2α-based fluorogenic substrate, and kinase activity was evaluated in presence of HC-5404 across a concentration series.

[3] = tested on: tumor vasculature of 786-O xenografts; experiment: IHC of tumor vasculature in 786-O xenografts; assay type: in vivo, mouse
Procedure: (§1) Formalin-fixed paraffin-embedded samples were sectioned at 5 μm thickness and mounted on Superfrost Plus microscope slides (Fisher Scientific). All immunohistochemical (IHC) staining was performed on Bond Rx auto-stainer (Leica Biosystems) using the conventional TSA-amplified detection system. Primary antibodies used were as follows: α-CD31 (Abcam #ab182981), α-smooth muscle actin (SMA; Abcam #ab124964), α-Meca32 (Novus Biologicals #NB100-77668). TSA-conjugated Alexa488 and Alexa647 fluorophores from Invitrogen (#B40953 and #B40958) were used at 1:500 dilution. Slides were counterstained with DAPI and cover slipped using Mowiol antifade mounting media (Sigma #D2522).
(§2) Slides were imaged with Aperio Versa 200 (Leica Biosystems) whole-slide scanner using 10×/0.32NA objective, and the data were analyzed using custom-written macros in ImageJ/FIJI (NIH). Briefly, 150 μm of outer edges of the tumor sections were eliminated from the analysis. Gaussian-blurred DAPI channel was used to measure the area of the tissue. Scans of […] were processed with median filter to remove noise, then positive areas were measured with appropriate threshold levels. % positive area for each marker was calculated. CD31-SMA double positive areas were measured via image calculation of the binary images. One-way ANOVA and pair-wise comparisons were performed on the data using Prism GraphPad.
PERK is an adaptive stress response that links hypoxia and nutrient deprivation with proangiogenic signaling. The effect of HC-5404 on tumor vasculature when administered in combination with antiangiogenic VEGFR-TKIs was investigated.
As immature blood vessels mature, they develop a mural layer of cells that express smooth muscle actin (SMA), which encircles and stabilizes the maturing vessel. Co-staining for both CD31 and SMA was conducted to determine whether treatments were affecting mature or immature tumor blood vessels.
This example investigated the inhibition the effect of cabozantinib on the formation of new tumor vasculature and on pericytes following procedures analogous to those described above.

[4] = tested on: ASNS, CBS and CTH in 786-O tumors; experiment: ASNS, CBS and CTH in 786-O tumors; assay type: in vivo, mouse; details: HC-5404 treatment (FIG. 29)
Procedure: Samples were put in 500 μL of Novex lysis buffer consisting of 2× Novex Tris-Glycine SDS sample buffer (ThermoFisher LC2676), 1× Phosphatase Inhibitor Cocktail III (Sigma P0044), 1× PhosphataseArrest I (Gbioscience 113P-D), 1×2-mercaptoethanol (Gibco 21985023), 1× Benzonase (EMD Millipore Corp 70746-3), and 1× Protease inhibitor cocktail tablet (Roche/Sigma 11836170001). Samples were homogenized with the Polytron and heated for 10 min at 95 °C. They were then centrifuged at max speed for 10 min and the supernatant was transferred. Protein concentrations of samples were measured using the Pierce 660 nm Protein assay kit (Thermo Scientific 22660) according to the manufacturer's instructions.
Western Blot analysis was performed on the SimpleWestern high-throughput protein analysis platform (ProteinSimple 004-650) according to manufacturer's protocol using a 12-230 kDA Separation Module (ProteinSimple SM-W004) and Total Protein Detection Module (ProteinSimple DM-TP01). Antibodies used were: (Add info for other antibodies used) pPERK (Lilly; 1:50) and PERK (Cell Signaling Technology 5683; 1:200). All protein analytes were normalized to total protein loaded on capillary.
The effect of HC-5404 was further validated in tumors by assessing the response of markers of in vivo PERK inhibition. […]

[5] = tested on: ASNS and PSAT1 in MFE280 tumors; experiment: ASNS and PSAT1 in MFE280 tumors; assay type: in vivo, mouse; details: 7 days, HC-5404 30 mpk BID
[6] = tested on: HMGB1 in 786-O xenograft; experiment: HMGB1 IHC in 786-O xenografts; assay type: in vivo, mouse; details: 30 mg/kg, compared to vehicle (FIG. 4D)
Procedure: 786-O tumor cells were maintained in vitro with MEM medium supplemented with 10% heat inactivated fetal bovine serum and 0.01 mM NEAA, at 37 °C in an atmosphere of 5% CO2. Each mouse was inoculated subcutaneously at the right front region with 786-O tumor cells (5×106) in 0.1 ml of PBS (1:1 matrigel) for tumor development. The randomization for efficacy study began when the mean tumor size reached approximately 200-300 mm^3, preferably to initiate with 250 mm^3. […]
Paraffin sections of tumor samples were stained on slides for HMGB1 using the Abcam antibody (cat #ab18256) and chromogenic DAB staining on Bond Rx (Leica Biosystems). The slides were digitized by Leica AT2 slide scanner with 40× objective. The scanned images were analyzed using custom-written macro in ImageJ/FIJI (NIH) to measure nuclear and non-nuclear signal (FIGS. 4C and 4D).

[7] = tested on: tumor vasculature and pericyte cells of 786-O xenografts progressed on axitinib; experiment: IHC of tumor vasculature and pericytes in 786-O xenografts that progressed on axitinib; assay type: in vivo, mouse; details: 7 days after rerandomization (FIG. 92)
Procedure: as §1, §2
After 14 days of treatments, 77 mice bearing the largest tumors were rerandomized into four PD arms (n=8), four efficacy arms (n=10), and 5 tumors sampled on day of rerandomization as a baseline. The remaining animals were removed from study.

[8] = tested on: pPERK in mouse pancreas; experiment: pPERK inhibition (PD) in mouse pancreas; assay type: in vivo
Procedure: The PK/PD relationship was evaluated in mouse pancreas, as the pancreas has elevated pPERK activity that makes it suitable for PD analysis. […] At these concentrations, pPERK inhibition was approximately 90% (FIG. 19).

Cc1cc(NC(=O)[C@H](O)c2cc(F)cc(F)c2)ccc1-c1cnc(N)c(C(=O)NC(C)C)c1 [HC-5404, (R)-2-amino-5-(4-(2-(3,5-difluorophenyl)-2-hydroxyacetamido)-2-methylphenyl)-N-isopropylnicotinamide]
antitumor efficacy as monotherapy [1]: exhibited antitumor efficacy | biochemical selectivity for PERK over GCN2, HRI and PKR [2]: > 2000 fold | expression of any vascular markers ([3]; HC-5404 single agent (FIG. 39)): did not affect the expression of any vascular markers | proportion of Meca32 expressing vascular endothelial cells ([3]; axitinib study (FIG. 38, 39)): did not affect this vascular endothelium marker | accumulation of ASNS, CBS and CTH [4]: dose-dependent accumulation of ASNS, CBS and CTH | ASNS ([5]; lenvatinib 10 mpk QD (FIG. 79)): induces ASNS | PSAT1 ([5]; lenvatinib 10 mpk QD (FIG. 80)): induces | HMGB1 cytoplasmic expression [6]: induced | proportion of smooth muscle actin (SMA) [7]: decreased | time until basal pPERK levels restored in pancreas ([8]; 30 mg/kg PO, after dosing): ≤ 12 h | pPERK activity remaining in pancreas ([8]; 100 mg/kg PO, first 12 h): < 20% | inhibition at 30 mg/kg ([8]; Mus musculus, 30 mg/kg PO, 1 h): ~90% | inhibition of p-PERK in pancreas tissue ([8]; PO): time-dependent and dose-dependent inhibition of p-PERK

From US20260373132A1, “PERK INHIBITORHC-5404 IN COMBINATION WITH ANTI-PD-1 ANTIBODY AND/OR AN ANTIANGIOGENETIC AGENT FOR USE IN THE TREATMENT OF CANCER” (HIBERCELL, INC., priority 2022, published 2026)
